Experimental data taken from publication PMC8691750, “Euphorbia Factor L2 ameliorates the Progression of K/BxN Serum-Induced Arthritis by Blocking TLR7 Mediated IRAK4/IKKβ/IRF5 and NF-kB Signaling Pathways” (Frontiers in Pharmacology, 2021).

Assays:
[1] = In vivo pharmacokinetic study, plasma UPLC-MS; parameters: species or system C57BL/6 mice; details: for Cmax: 40 mg/kg
Description: Prior to the pharmacokinetic study, 12 male C57BL/6 mice were fasted for 12 h with free access to water, and then treated by intraperitoneal injection of EFL2 at a dose of 40 mg/kg. About 50 μL blood samples were collected via the oculi chorioideae vein at 0.5, 1, 2, 4, 8, 12, 24, 72, 96, and 168 h, respectively. After centrifugation at 5,000 rpm for 10 min, plasma samples were obtained and frozen at −80°C until analysis. The pharmacokinetic parameters of EFL2 were calculated using WinNolin 4.0.1 software.
20 μL plasma samples were spiked with 340 μL acetonitrile by vortex mixing for 30 s. The mixture was then centrifuged at 10,000 rpm for 5 min at 4°C to separate the precipitated protein. An aliquot of 50 μL supernatant was transferred to a fresh tube and spiked with 450 μL mobile phase (acetonitrile containing 0.1% formic acid). After centrifugation at 13,000 rpm for 5 min, 3 μL supernatant was injected into Agilent 6,495 Triple Quadrupole LC/MS/MS system for each time. Then, the concentration of EFL2 was determined.
An Agilent 1,200 series UPLC system (Agilent Technologies, Waldbronn, Germany) equipped with an 6,495 quadruple mass spectrometer (Agilent Technologies, Santa Clara, CA, United States) were used for pharmacokinetic study. The separation was carried out with Waters Acquity UPLC BEH C18 column (2.1 × 50 mm, 1.7 μm) at a constant temperature of 30 °C. The mobile phase was composed of aqueous solution (0.1% formic acid, A) and acetonitrile (containing 0.1% formic acid, B) and the program of the mobile phase was as follows: 0 min, 40% B; 1 min, 40% B; 1.5 min, 80% B; 2.5 min, 90% B; 4 min, 90% B; 4.1 min, 40% B; 6 min, 40% B, at a flow rate of 0.3 ml/min. The mass spectra were acquired using a triple quadrupole mass spectrometer with ESI ion source in positive mode. The ionization conditions were as follows: drying gas temperature (N2), 300°C; gas flow, 11 L/min (N2); nebulizer pressure, 35 psi (N2). An Agilent Mass Hunter workstation was used for data processing.

[2] = tested on: IL-1β and IL-6 in the ankle; assay: Immunochemistry staining for IL-1β and IL-6 in ankles; assay type: in vivo, C57BL/6 mice; details: STA mice; EFL2 15 or 40 mg/kg
Description: The dissected left ankles were fixed in 4% formaldehyde overnight. Embedding, de-paraffinization, and re-hydration of the ankle sections were the same as described for H&E staining. After treated with 3% […] for 10 min, the tissue sections were immersed in a 10 mM sodium citrate buffer (pH 6.0) for 15 min at 95°C, and washed with PBS. The sections were then blocked with 5% goat serum in PBS, and incubated with primary antibodies overnight at 4°C. Primary antibodies were as follows: rabbit anti-mouse IL-1β (1:600, Abcam, China); rabbit anti-mouse IL-6 (1:50, Abcam, China). The signal was visualized using an Envision System (DAKO, United States). The images were then acquired by microscopy (Leica DMil).

[3] = tested on: RAW264.7 cells; assay: Cell viability, CCK8 assay, RAW264.7; assay type: cell-based, mouse; details: CCK8, 0.1-100 μM, 20 h
Description: (§1) RAW264.7 cells, a mouse macrophage cell line, were cultured in DMEM medium containing 10% fetal bovine serum (FBS), 1% penicillin-streptomycin and maintained at 37 °C in 5% CO2 humidified air. Bone marrow-derived macrophages (BMDMs) generation was performed as following description. In brief, bone marrow cells were harvested from tibias and femurs of C57BL/6 mice and differentiated for 7 days in DMEM medium supplemented with 10% FBS, 1% penicillin-streptomycin and 50 ng/ml M-CSF. For human peripheral blood mononuclear cells (PBMCs) preparation, 5 ml peripheral venous blood was obtained from healthy donors in West China Hospital. PBMCs were isolated with Human Lymphocyte Separation Medium (LTS1077, Tian Jing, China) according to the manufacturer’s instructions. The experimental protocols were performed according to the approved guidelines established by the Institutional Human Research Subject Protection Committee of the Ethics Committee of West China Hospital, Sichuan University, China.
(§2) The effects of EFL2 on RAW264.7 cells, BMDMs and PBMCs viability were evaluated by Cell Counting Kit-8 (CCK8) assay (Dojindo, Japan). […] The optical absorbance at 450 nm was read with a Biotek Eon™ microplate reader (Biotek, Vermont, United States).

[4] = tested on: PBMCs; assay: Cell viability, CCK8 assay, PBMCs; assay type: cell-based, human; details: CCK8, at 100 μM
Description: as §1, §2

[5] = molecular target: T1, IRF5 (Mus musculus, UniProt P56477); assay: IRF5 plasmid transfection (overexpression) in RAW264.7 cells; assay type: cell-based; details: RAW264.7 transfected with IRF5 plasmid
T1 construct: host or cells: RAW264.7
Description: RAW264.7 cells (4×10^5 cells/well) were seeded into 6-well plates before transfection with the plasmid. When cells confluency reached 60%, RAW264.7 cells were transfected with plasmid IRF5-mouse vector (Origene, United States) using TransEasy™ Transfection Reagent (FOREGENE, China). IRF5 plasmid was suspended with transfection reagent as 1:1.5. Cells were incubated at 37°C for 24 h, then treated with EFL2 and R837 for another 24 h. The supernatant was collected for IL-1β and IL-6 measurements using ELISA kits as described above. For western blot detection, RAW264.7 cells were pretreated with EFL2 (10 µM) for 1 h and stimulated with R837 (20 μg/ml) for 40 min after IRF5 plasmid transfection. Cell lysates were prepared as described above.

[6] = male, C57BL/6, mouse, ip, mice, 40 mg/kg intraperitoneal injection, plasma

T1 sequence (P56477 whole entry): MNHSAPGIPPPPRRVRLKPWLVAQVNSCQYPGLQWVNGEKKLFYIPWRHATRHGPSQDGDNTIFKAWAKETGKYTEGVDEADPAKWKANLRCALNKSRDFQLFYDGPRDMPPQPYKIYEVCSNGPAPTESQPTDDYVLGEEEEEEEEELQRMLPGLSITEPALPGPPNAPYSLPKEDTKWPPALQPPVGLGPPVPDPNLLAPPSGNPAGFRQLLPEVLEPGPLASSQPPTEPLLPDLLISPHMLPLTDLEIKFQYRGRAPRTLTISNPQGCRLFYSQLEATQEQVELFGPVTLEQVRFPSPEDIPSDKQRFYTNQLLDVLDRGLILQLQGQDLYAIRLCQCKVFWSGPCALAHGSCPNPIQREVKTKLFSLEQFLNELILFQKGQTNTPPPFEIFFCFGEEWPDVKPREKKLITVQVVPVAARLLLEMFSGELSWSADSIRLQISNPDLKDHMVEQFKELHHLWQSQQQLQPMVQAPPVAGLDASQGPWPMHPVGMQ

With C=C1C(OC(=O)c2ccccc2)CC2C(C=C(C)C(=O)C3(OC(C)=O)CC(C)C(OC(=O)c4ccccc4)C3C1OC(C)=O)C2(C)C (centres unmarked) [EFL2, Euphorbia factor L2] the “peak concentration in sera” value ([1]; based on Cmax and molecular weight (MW = 642.6)) was 7.03 µM, the AUC(0-inf) [1, 6] was 379 ± 166 µg·h/mL and the AUC(0-t) [1, 6] was 374 ± 164 µg·h/mL. For the same compound, the Tmax [1, 6] was 2.5 ± 1.73 h, the half-life [1, 6] was 21.2 ± 7.11 h and the MRT last ([1]; male, C57BL/6, mouse, ip, mice, 40 mg/kg intraperitoneal injection, plasma, read-out: MRT0-t) was 59.2 ± 2.75 h. It also gave an MRT inf ([1]; male, C57BL/6, mouse, ip, mice, 40 mg/kg intraperitoneal injection, plasma, read-out: MRT0-∞) of 61.4 ± 3.7 h, a Cmax ([1]; male, C57BL/6, mouse, plasma, ip, mice, 40 mg/kg i.p.) of 4520 ± 1630 ng/mL and a Cmax ([1]; male, C57BL/6, mouse, plasma, ip, mice, 40 mg/kg intraperitoneal injection) of 4530 ng/mL. The “IL-1β and IL-6 production in local inflamed joints (immunohistochemical staining)” value [2] was “could inhibit”, the “concentration at which significant cytotoxicity is displayed” value [3] was no less than 25 µM and the PBMCs viability [4] was “did not affect”. The “suppressive effect of EFL2 on nuclear translocation of IRF5 after overexpression of IRF5” value ([5]; EFL2 10 μM, R837) was “significantly reversed” and the “EFL2-induced reduction of IL-1β and IL-6 after overexpression of IRF5” value ([5]; EFL2 and R837 24 h) was “effectively reversed”.
